Measurements reported in paper PMC8197369, “Scale-Up Preparation of Crocins I and II from Gardenia jasminoides by a Two-Step Chromatographic Approach and Their Inhibitory Activity Against ATP Citrate Lyase” (Molecules, 2021).

Target: T1, ATP citrate lyase (ACLY) (Homo sapiens, UniProt P53396)
T1 construct: ACLY (His)
T1 sequence (P53396 1-1101): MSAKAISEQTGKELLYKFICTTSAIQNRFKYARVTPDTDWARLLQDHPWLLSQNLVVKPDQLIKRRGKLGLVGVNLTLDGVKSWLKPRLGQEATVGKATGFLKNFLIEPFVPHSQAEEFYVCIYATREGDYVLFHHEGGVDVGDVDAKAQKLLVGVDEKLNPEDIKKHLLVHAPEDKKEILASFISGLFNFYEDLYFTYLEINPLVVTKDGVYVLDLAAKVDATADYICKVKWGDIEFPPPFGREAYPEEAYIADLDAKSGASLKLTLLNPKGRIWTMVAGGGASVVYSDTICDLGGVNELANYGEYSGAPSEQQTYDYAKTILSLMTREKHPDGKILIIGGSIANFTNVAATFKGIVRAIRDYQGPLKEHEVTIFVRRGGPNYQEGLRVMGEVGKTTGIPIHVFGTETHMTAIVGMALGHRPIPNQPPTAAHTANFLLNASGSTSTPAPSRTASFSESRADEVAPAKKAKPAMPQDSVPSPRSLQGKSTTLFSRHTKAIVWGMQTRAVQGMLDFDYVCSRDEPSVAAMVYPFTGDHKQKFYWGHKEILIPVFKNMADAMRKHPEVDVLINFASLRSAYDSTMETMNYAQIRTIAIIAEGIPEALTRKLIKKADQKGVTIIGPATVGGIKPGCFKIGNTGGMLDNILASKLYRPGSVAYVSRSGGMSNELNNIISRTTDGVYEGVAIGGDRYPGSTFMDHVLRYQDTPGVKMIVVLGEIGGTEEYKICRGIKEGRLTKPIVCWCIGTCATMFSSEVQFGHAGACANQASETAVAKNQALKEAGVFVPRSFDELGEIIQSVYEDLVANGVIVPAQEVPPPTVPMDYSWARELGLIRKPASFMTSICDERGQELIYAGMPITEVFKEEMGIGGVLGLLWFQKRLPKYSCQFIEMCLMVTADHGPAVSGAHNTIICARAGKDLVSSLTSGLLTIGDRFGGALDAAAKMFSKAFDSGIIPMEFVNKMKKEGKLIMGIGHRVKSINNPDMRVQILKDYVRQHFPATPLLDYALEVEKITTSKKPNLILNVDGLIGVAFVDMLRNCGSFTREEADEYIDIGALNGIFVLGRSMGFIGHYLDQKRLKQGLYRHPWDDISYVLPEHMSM
Assay: ADP-Glo ADP-coupled enzymatic assay
Format: biochemical

| IC50 [µM] | Compound |
| --- | --- |
| 36.3 ± 6.24 | CC(/C=C/C=C(\C)C(=O)O[C@@H]1O[C@H](CO[C@@H]2O[C@H](CO)[C@@H](O)[C@H](O)[C@H]2O)[C@@H](O)[C@H](O)[C@H]1O)=C\C=C\C=C(C)\C=C\C=C(/C)C(=O)O[C@@H]1O[C@H](CO[C@@H]2O[C@H](CO)[C@@H](O)[C@H](O)[C@H]2O)[C@@H](O)[C@H](O)[C@H]1O [compound 1, crocin I] |
| 29.7 ± 7.41 | CC(/C=C/C=C(\C)C(=O)O[C@@H]1O[C@H](CO)[C@@H](O)[C@H](O)[C@H]1O)=C\C=C\C=C(C)\C=C\C=C(/C)C(=O)O[C@@H]1O[C@H](CO[C@@H]2O[C@H](CO)[C@@H](O)[C@H](O)[C@H]2O)[C@@H](O)[C@H](O)[C@H]1O [compound 2, crocin II] |
